This note sets out measurements from patent US8759295B2, “Peptide-peptidase inhibitor conjugates and methods of using same” (Amylin Pharmaceuticals, LLC, priority 2006, dated 2014).

Broadly, the inhibition is the share of the control response that was lost under treatment. A word on the IC50: it is the concentration needed to halve the response being measured.

Test [1] concerns the target T1, human GIP receptor (HEK-GIPR membranes) (Homo sapiens, UniProt P48546).
T1 construct: expressed in transfected cells
T1 sequence (P48546 22-466): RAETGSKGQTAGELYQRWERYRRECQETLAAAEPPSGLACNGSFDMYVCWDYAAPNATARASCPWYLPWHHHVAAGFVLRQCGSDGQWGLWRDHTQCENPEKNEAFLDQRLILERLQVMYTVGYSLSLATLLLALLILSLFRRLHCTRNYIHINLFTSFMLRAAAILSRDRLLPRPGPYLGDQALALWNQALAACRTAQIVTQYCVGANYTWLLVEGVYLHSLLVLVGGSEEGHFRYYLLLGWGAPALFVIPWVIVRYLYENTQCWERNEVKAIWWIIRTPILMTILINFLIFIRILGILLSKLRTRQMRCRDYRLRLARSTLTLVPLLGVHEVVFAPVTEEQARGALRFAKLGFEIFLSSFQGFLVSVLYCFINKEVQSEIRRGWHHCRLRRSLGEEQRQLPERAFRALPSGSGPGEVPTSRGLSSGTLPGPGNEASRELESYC
Kind of test: GIP receptor binding displacement assay (RBA). The following applies: read-out: GIP RBA % inhibition at 10 nM; 10 nM conjugate, 30 pM 125I-GIP. On the procedure: Membrane fractions were prepared from confluent cell cultures of HEK-GIPR, snap frozen, and stored at −80° C. until use. […] Reactions were allowed to proceed to equilibrium for 90 minutes at room temperature with constant shaking. The reaction mixtures were then filtered through 96-well glass fiber filter plates separating bound and unbound fractions of radioligand.

Test [2] addresses Recombinant DPP-IV (Homo sapiens, UniProt P27487). In words: DPP-IV inhibition assay with chromogenic substrate. Type of test: biochemical. Also noted: purchased Chemicon International, Inc., Temecula, Calif. Conditions: mean SEM of at least three determinations. On the procedure:
The reactions were initiated by adding 1 μl DPP-IV enzyme (0.05 mU) into each well and the absorbance at 410 nm was measured with 20-sec intervals over a 30-min period using a SpectraMax plate reader (Molecular Devices, Corp., Sunnyvale, Calif.). The velocities of each reaction at different inhibitor concentrations were calculated and the reciprocal velocities were plotted against inhibitor concentrations in Dixon graphs. The IC50 values of reaction velocities were calculated through fitting the plots with linear equation.
The IC50 (nM) values in Table 5 are expressed as the mean SEM of at least three independent determinations.

Recombinant DPP-IV, sequence (P27487 whole entry, species assumed): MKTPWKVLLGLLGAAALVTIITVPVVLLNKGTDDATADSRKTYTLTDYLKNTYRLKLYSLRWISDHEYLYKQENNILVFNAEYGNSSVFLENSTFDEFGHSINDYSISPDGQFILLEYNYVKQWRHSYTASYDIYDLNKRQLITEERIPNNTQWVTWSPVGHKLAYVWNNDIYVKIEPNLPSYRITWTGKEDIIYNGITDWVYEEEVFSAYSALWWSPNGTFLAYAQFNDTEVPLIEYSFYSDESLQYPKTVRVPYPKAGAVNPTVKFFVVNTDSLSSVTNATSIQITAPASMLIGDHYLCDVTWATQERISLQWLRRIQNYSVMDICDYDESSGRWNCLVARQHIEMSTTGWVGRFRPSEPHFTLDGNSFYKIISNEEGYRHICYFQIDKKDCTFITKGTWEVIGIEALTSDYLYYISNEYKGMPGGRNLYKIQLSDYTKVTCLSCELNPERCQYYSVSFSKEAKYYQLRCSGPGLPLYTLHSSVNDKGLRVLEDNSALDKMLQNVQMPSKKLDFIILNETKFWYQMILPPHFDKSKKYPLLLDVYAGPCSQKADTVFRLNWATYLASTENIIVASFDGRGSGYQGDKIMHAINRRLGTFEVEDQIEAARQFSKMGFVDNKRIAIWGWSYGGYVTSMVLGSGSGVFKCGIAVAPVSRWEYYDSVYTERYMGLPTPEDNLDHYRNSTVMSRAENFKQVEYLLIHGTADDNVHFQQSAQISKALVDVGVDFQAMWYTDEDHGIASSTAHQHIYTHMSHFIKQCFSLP

As for `CC[C@H](C)[C@H](NC(=O)[C@H](CO)NC(=O)[C@H](Cc1ccc(O)cc1)NC(=O)[C@H](CC(=O)O)NC(=O)[C@H](CO)NC(=O)[C@@H](NC(=O)[C@H](Cc1ccccc1)NC(=O)[C@@H](NC(=O)CNC(=O)[C@H](CCC(=O)O)NC(=O)[C@H](C)NC(=O)[C@@H](N)Cc1ccc(O)cc1)[C@@H](C)O)[C@@H](C)CC)C(=O)N[C@@H](C)C(=O)N[C@@H](CCSC)C(=O)N[C@@H](CC(=O)O)C(=O)N[C@@H](CCCCN)C(=O)N[C@H](C(=O)N[C@@H](Cc1c[nH]cn1)C(=O)N[C@@H](CCC(N)=O)C(=O)N[C@@H](CCC(N)=O)C(=O)N[C@@H](CC(=O)O)C(=O)N[C@@H](Cc1ccccc1)C(=O)N[C@H](C(=O)N[C@@H](CC(N)=O)C(=O)N[C@@H](Cc1c[nH]c2ccccc12)C(=O)N[C@@H](CC(C)C)C(=O)N[C@@H](CC(C)C)C(=O)N[C@@H](C)C(=O)N[C@@H](CCC(N)=O)C(=O)N[C@@H](CCCCN)C(=O)NCCOCCOCC(=O)NCCCC[C@H](N)C(=O)N1CCC[C@H]1C#N)C(C)C)[C@@H](C)CC` [GIP(1-30)-Ado-Lys-N-ε-(2-(S)-cyano pyrrolidyl)], in test [1], the inhibition at 0.01 µM was 99%. In addition, the IC50 in test [2] worked out at 98 ± 5 nM.
Regarding `CC[C@H](C)[C@H](NC(=O)[C@H](CO)NC(=O)[C@H](Cc1ccc(O)cc1)NC(=O)[C@H](CC(=O)O)NC(=O)[C@H](CO)NC(=O)[C@@H](NC(=O)[C@H](Cc1ccccc1)NC(=O)[C@@H](NC(=O)CNC(=O)[C@H](CCC(=O)O)NC(=O)[C@H](C)NC(=O)[C@@H](N)Cc1ccc(O)cc1)[C@@H](C)O)[C@@H](C)CC)C(=O)N[C@@H](C)C(=O)N[C@@H](CCSC)C(=O)N[C@@H](CC(=O)O)C(=O)N[C@@H](CCCCN)C(=O)N[C@H](C(=O)N[C@@H](Cc1c[nH]cn1)C(=O)N[C@@H](CCC(N)=O)C(=O)N[C@@H](CCC(N)=O)C(=O)N[C@@H](CC(=O)O)C(=O)N[C@@H](Cc1ccccc1)C(=O)N[C@H](C(=O)N[C@@H](CC(N)=O)C(=O)N[C@@H](Cc1c[nH]c2ccccc12)C(=O)N[C@@H](CC(C)C)C(=O)N[C@@H](CC(C)C)C(=O)N[C@@H](C)C(=O)N[C@@H](CCC(N)=O)C(=O)N[C@@H](CCCCNC(=O)COCCOCCNC(=O)CC[C@H](N)C(=O)N1CCC[C@H]1C#N)C(N)=O)C(C)C)[C@@H](C)CC` [Lys^30N-ε-(Ado-(γ-L-Glu-2-(S)-cyanopyrrolidyl)) GIP(1-30)], in test [1], the inhibition at 0.01 µM came to 33%. In addition, the IC50 in test [2] turned out to be 49 ± 6 nM.
For the molecule `CC[C@H](C)[C@H](NC(=O)[C@H](CO)NC(=O)[C@H](Cc1ccc(O)cc1)NC(=O)[C@H](CC(=O)O)NC(=O)[C@H](CO)NC(=O)[C@@H](NC(=O)[C@H](Cc1ccccc1)NC(=O)[C@@H](NC(=O)CNC(=O)[C@H](CCC(=O)O)NC(=O)[C@H](C)NC(=O)[C@H](Cc1ccc(O)cc1)NC(=O)COCCOCCNC(=O)COCCOCCNC(=O)CC[C@H](N)C(=O)N1CCC[C@H]1C#N)[C@@H](C)O)[C@@H](C)CC)C(=O)N[C@@H](C)C(=O)N[C@@H](CCSC)C(=O)N[C@@H](CC(=O)O)C(=O)N[C@@H](CCCCN)C(=O)N[C@H](C(=O)N[C@@H](Cc1c[nH]cn1)C(=O)N[C@@H](CCC(N)=O)C(=O)N[C@@H](CCC(N)=O)C(=O)N[C@@H](CC(=O)O)C(=O)N[C@@H](Cc1ccccc1)C(=O)N[C@H](C(=O)N[C@@H](CC(N)=O)C(=O)N[C@@H](Cc1c[nH]c2ccccc12)C(=O)N[C@@H](CC(C)C)C(=O)N[C@@H](CC(C)C)C(=O)N[C@@H](C)C(=O)N[C@@H](CCC(N)=O)C(=O)N[C@@H](CCCCN)C(=O)O)C(C)C)[C@@H](C)CC` [N-(γ-L-Glu-2-(S)-cyanopyrrolidyl)-Ado-Ado) GIP(1-30)], in test [1], the inhibition at 0.01 µM came to 32%. In test [2], the IC50 is 64 ± 8 nM.
